# Test results taken from patent US8895571B2, “Isoindolinone and pyrrolopyridinone derivatives as Akt inhibitors” (Incyte Corporation, priority 2011, dated 2014).
# Tests used:
# Format in all cases: biochemical
# Full length Akt3 = target: T1, Full length Akt3 (Homo sapiens, UniProt Q9Y243); test: In vitro Akt kinase enzymatic assay (HTRF), Akt3; conditions: 0.6 nM Akt3, substrate solution with 5 mM ATP, 25° C. 1 hr
# T1 construct: Full length Akt1 (cat #P2999), Akt2 (cat #PV3184), Akt3 (cat #PV3185); purchased PerkinElmer PV3185
# T1 sequence (Q9Y243 whole entry): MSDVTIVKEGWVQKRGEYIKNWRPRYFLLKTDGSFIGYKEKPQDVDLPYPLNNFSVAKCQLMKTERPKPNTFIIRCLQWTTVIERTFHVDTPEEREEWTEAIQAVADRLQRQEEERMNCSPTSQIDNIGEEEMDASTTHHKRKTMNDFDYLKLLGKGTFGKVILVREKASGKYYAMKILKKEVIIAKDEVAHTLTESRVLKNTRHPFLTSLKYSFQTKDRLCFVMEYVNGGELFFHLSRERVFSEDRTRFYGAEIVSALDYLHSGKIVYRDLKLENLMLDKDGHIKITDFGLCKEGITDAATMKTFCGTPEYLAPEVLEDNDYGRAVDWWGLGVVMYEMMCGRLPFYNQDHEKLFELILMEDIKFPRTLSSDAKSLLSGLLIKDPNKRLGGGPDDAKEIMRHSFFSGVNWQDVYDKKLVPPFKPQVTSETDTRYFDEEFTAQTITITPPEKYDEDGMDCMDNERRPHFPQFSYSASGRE
# Experimental: (§1) Compounds herein were tested for inhibitory activity of Akt targets according to the following in vitro assay. Full length Akt1 (cat #P2999), Akt2 (cat #PV3184), Akt3 (cat #PV3185), peptide substrate, Ulight-Crosstide (cat #TRF0106-M), Ultra-Europium anti-phospho-Crosstide (cat #TRF-0202-M), and 10×LANCE detection buffer (cat #CR97-100) were purchased from PerkinElmer. In general, assay buffer conditions were chosen based on obtaining optimal enzymatic and linear activities. The assay buffer contains 50 mM HEPES, 10 mM MgCl2, 5 mM DTT, 0.005% Tween20 at pH 7.8. Compound stock (0.001 mM) was prepared in DMSO. The compound plate was prepared by 3-fold and 11-point serial dilutions. 0.5 μL of the compound in DMSO was transferred from the compound plate to the assay plate. Enzyme solution (0.4 nM of Akt1, 0.6 nM of Akt2 or 0.6 nM of Akt3) was prepared in the assay buffer. Note that the enzyme concentration given is based on the given stock concentration reported by the vendor. 0.1 μM substrate solution was prepared in the assay buffer with addition of 5 mM ATP. 10 μL of the enzyme solution was added to the assay plate and then 10 μL of substrate solution was added to the assay plate. The plate was protected from light and the reaction was incubated at 25° C. for 1 hr. The reaction was stopped by adding 10 μL of a solution containing 30 mM EDTA, and 3 nM Ultra Europium anti-phospho Crosstide in 1× detection buffer. The plate was incubated for 15-30 min at room temperature and HTRF (homogenous time resolved fluorescence) was measured on a plate reader. Percentage of inhibition was calculated for each concentration and IC50 value was generated from curve fitting. See Table 8 for data related to compounds of the examples.
# Full length PKA = target: T2, Full length PKA (Homo sapiens, UniProt P17612); test: PKA in vitro enzymatic assay (HTRF); conditions: 0.035 nM enzyme solution, substrate solution with 5 mM ATP, 25° C. 1 hr
# T2 construct: Full length PKA (cat #P2912); purchased Invitrogen P2912
# Experimental: Full length PKA (cat #P2912), peptide substrate, fluorescein CREBtide peptide (cat #PV3508), Tb-Crebtide p-S133 Ab (cat #PV3566), and Lanthascreen TR-FRET Dilution Buffer stored (part # PV3574) were purchased from Invitrogen. In general, assay buffer conditions were chosen based on obtaining optimal and linear enzymatic activities. The assay buffer contains 50 mM HEPES, 10 mM MgCl2, 5 mM DTT, 0.005% Tween20 at pH 7.8. Compound stock (0.001 mM) was prepared in DMSO. The compound plate was prepared by 3-fold and 11-point serial dilutions. 0.5 μL of the compound in DMSO was transferred from the compound plate to the assay plate. 0.035 nM enzyme solution was prepared in the assay buffer. Note that the enzyme concentration given is based on the given stock concentration reported by the vendor. 0.1 μM substrate solution was prepared in the assay buffer with addition of 5 mM ATP. 10 μL of the enzyme solution was added to the assay plate and then 10 μL of substrate solution was added to the assay plate. The plate was protected from light and the reaction was incubated at 25° C. for 1 hr. The reaction was stopped by adding 10 μL of a solution containing 30 mM EDTA, and 1.5 nM Tb-Crebtide p-S133 Ab in 1× detection buffer. The plate was incubated for 15-30 min at room temperature and HTRF (homogenous time resolved fluorescence) was measured on a plate reader. Percentage of inhibition was calculated for each concentration and IC50 value was generated from curve fitting. See Table 8 for data related to compounds of the examples.
# Full length Akt1 = target: T3, Full length Akt1 (Homo sapiens, UniProt P31749); test: In vitro Akt kinase enzymatic assay (HTRF), Akt1; conditions: 0.4 nM Akt1, substrate solution with 5 mM ATP, 25° C. 1 hr
# T3 construct: Full length Akt1 (cat #P2999); purchased PerkinElmer P2999
# T3 sequence (P31749 whole entry): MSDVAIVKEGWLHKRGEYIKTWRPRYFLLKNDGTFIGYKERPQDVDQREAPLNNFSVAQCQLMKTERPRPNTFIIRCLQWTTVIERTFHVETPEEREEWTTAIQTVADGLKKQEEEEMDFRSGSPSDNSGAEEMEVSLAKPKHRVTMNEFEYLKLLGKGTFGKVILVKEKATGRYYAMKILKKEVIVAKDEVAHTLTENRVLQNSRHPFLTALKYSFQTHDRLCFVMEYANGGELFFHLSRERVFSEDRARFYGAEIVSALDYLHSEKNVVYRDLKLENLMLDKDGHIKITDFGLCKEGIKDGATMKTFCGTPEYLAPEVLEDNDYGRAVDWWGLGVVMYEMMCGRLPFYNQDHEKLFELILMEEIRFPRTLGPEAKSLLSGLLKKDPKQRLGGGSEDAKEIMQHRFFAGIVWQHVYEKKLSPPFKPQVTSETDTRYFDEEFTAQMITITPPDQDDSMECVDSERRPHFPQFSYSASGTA
# Experimental: as §1
# Full length Akt2 = target: T4, Full length Akt2 (Homo sapiens, UniProt P31751); test: In vitro Akt kinase enzymatic assay (HTRF), Akt2; conditions: 0.6 nM Akt2, substrate solution with 5 mM ATP, 25° C. 1 hr
# T4 construct: Full length Akt1 (cat #P2999), Akt2 (cat #PV3184); purchased PerkinElmer PV3184
# T4 sequence (P31751 whole entry): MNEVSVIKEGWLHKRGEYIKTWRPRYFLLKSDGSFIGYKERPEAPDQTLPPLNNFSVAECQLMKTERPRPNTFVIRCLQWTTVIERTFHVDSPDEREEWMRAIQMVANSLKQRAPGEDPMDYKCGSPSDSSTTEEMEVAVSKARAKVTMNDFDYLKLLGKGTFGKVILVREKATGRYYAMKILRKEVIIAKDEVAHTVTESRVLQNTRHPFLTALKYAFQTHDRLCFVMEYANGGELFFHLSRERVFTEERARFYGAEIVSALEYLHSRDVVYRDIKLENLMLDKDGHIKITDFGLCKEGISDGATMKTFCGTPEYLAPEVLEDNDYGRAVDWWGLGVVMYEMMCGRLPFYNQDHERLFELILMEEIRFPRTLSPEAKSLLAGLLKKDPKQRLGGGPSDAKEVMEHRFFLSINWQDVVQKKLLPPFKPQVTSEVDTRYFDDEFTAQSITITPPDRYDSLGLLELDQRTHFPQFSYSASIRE
# Experimental: as §1
Compound,IC50 (Full length Akt3),IC50 (Full length PKA),IC50 (Full length Akt1),IC50 (Full length Akt2)
"COc1ccc(C(CN)N2Cc3cc(-c4ccnn4C)ccc3C2=O)cc1 (centres unmarked) [Example 120, 2-[2-amino-1-(4-methoxyphenyl)ethyl]-5-(1-methyl-1H-pyrazol-5-yl)isoindolin-1-one]",> 5 µM,> 5 µM,> 5 µM,> 5 µM
"Cn1ncc(-c2ccccc2)c1-c1ccc2c(c1)CN([C@H](CN)Cc1cccc(F)c1)C2=O [Example 14, 2-[(1S)-2-amino-1-(3-fluorobenzyl)ethyl]-5-(4-phenyl-1-methyl-1H-pyrazol-5-yl)isoindolin-1-one]",< 0.5 µM,> 5 µM,0.5 to 5 µM,0.5 to 5 µM
"Cn1nccc1-c1ccc2c(n1)CN([C@H](CN)Cc1ccccc1)C2=O [Example 111, 6-[(1S)-2-amino-1-benzylethyl]-2-(1-methyl-1H-pyrazol-5-yl)-6,7-dihydro-5H-pyrrolo[3,4-b]pyridin-5-one]",> 5 µM,> 5 µM,0.5 to 5 µM,0.5 to 5 µM
"CCSCc1cnn(C)c1-c1cc2c(cn1)C(=O)N([C@H](CN)Cc1cccc(F)c1)C2 [Example 98, 2-[(1S)-2-amino-1-(3-fluorobenzyl)ethyl]-6-[4-(ethylthiomethyl)-1-methyl-1H-pyrazol-5-yl]-1,2-dihydro-3H-pyrrolo[3,4-c]pyridin-3-one]",0.5 to 5 µM,> 5 µM,0.5 to 5 µM,> 5 µM
"Cn1ncc(Cl)c1-c1ccc2c(c1)CN(C(CN)c1ccc(F)cc1)C2=O (centres unmarked) [Example 124, 2-[2-amino-1-(4-fluorophenyl)ethyl]-5-(4-chloro-1-methyl-1H-pyrazol-5-yl)isoindolin-1-one]",0.5 to 5 µM,> 5 µM,0.5 to 5 µM,0.5 to 5 µM
"CSCc1cnn(C)c1-c1ccc2c(c1)CN([C@H](CN)Cc1ccccc1)C2=O [Example 59, 2-[(1S)-2-amino-1-benzyl-ethyl]-5-[4-(methylthiomethyl)-1-methyl-1H-pyrazol-5-yl]isoindolin-1-one]",0.5 to 5 µM,> 5 µM,< 0.5 µM,0.5 to 5 µM
"Cn1ncc(Cl)c1-c1ccc2c(c1)CN(C(CN)c1cccc(F)c1)C2=O (centres unmarked) [Example 123, 2-[2-amino-1-(3-fluorophenyl)ethyl]-5-(4-chloro-1-methyl-1H-pyrazol-5-yl)isoindolin-1-one]",0.5 to 5 µM,0.5 to 5 µM,< 0.5 µM,0.5 to 5 µM
"Cn1ncc(Cl)c1-c1ncc2c(n1)CN([C@H](CN)Cc1ccccc1)C2=O [Example 113, 6-[(1S)-2-amino-1-benzyl-ethyl]-2-(4-chloro-1-methyl-1H-pyrazol-5-yl)-6,7-dihydro-5H-pyrrolo[3,4-d]pyrimidin-5-one]",0.5 to 5 µM,> 5 µM,< 0.5 µM,0.5 to 5 µM
"CN1CCC(NC[C@H](Cc2cccc(F)c2)N2Cc3cc(-c4c(Cl)cnn4C)ccc3C2=O)CC1 [Example 37, 5-(4-chloro-1-methyl-1H-pyrazol-5-yl)-2-{(1S)-1-(3-fluorobenzyl)-2-[(1-methylpiperidin-4-yl)amino]ethyl}isoindolin-1-one]",0.5 to 5 µM,> 5 µM,< 0.5 µM,0.5 to 5 µM
"CSCc1cnn(C)c1-c1cc2c(cn1)C(=O)N([C@H](CN)Cc1cccc(F)c1)C2 [Example 99, 2-[(1S)-2-amino-1-(3-fluorobenzyl)ethyl]-6-[4-(methylthiomethyl)-1-methyl-1H-pyrazol-5-yl]-1,2-dihydro-3H-pyrrolo[3,4-c]pyridin-3-one]",0.5 to 5 µM,> 5 µM,< 0.5 µM,0.5 to 5 µM
"Cn1ncc(Cl)c1-c1ccc2c(c1)CN([C@H](CNC1CCCC1)Cc1cccc(F)c1)C2=O [Example 35, 5-(4-chloro-1-methyl-1H-pyrazol-5-yl)-2-[(1S)-2-(cyclopentylamino)-1-(3-fluorobenzyl)ethyl]isoindolin-1-one]",0.5 to 5 µM,> 5 µM,< 0.5 µM,0.5 to 5 µM
"COc1cccc(C(CN)N2Cc3cc(-c4ccnn4C)ccc3C2=O)c1 (centres unmarked) [Example 119, 2-[2-amino-1-(3-methoxyphenyl)ethyl]-5-(1-methyl-1H-pyrazol-5-yl)isoindolin-1-one]",0.5 to 5 µM,0.5 to 5 µM,< 0.5 µM,< 0.5 µM
"COc1ccc(-c2cnn(C)c2-c2ccc3c(c2)CN([C@H](CN)Cc2cccc(F)c2)C3=O)cn1 [Example 28, 2-[(1S)-2-amino-1-(3-fluorobenzyl)ethyl]-5-[4-(6-methoxypyridin-3-yl)-1-methyl-1H-pyrazol-5-yl]isoindolin-1-one]",> 5 µM,> 5 µM,0.5 to 5 µM,> 5 µM

# Next, values leading:
IC50 (Full length Akt3),IC50 (Full length PKA),IC50 (Full length Akt1),IC50 (Full length Akt2),Compound
0.5 to 5 µM,> 5 µM,< 0.5 µM,0.5 to 5 µM,"CCNC[C@H](Cc1cccc(F)c1)N1Cc2cc(-c3c(Cl)cnn3C)ccc2C1=O [Example 31, 5-(4-chloro-1-methyl-1H-pyrazol-5-yl)-2-[(1S)-2-(ethylamino)-1-(3-fluorobenzyl)ethyl]isoindolin-1-one]"
< 0.5 µM,> 5 µM,0.5 to 5 µM,0.5 to 5 µM,"Cn1ncc(-c2ccsc2)c1-c1ccc2c(c1)CN([C@H](CN)Cc1cccc(F)c1)C2=O [Example 16, 2-[(1S)-2-amino-1-(3-fluorobenzyl)ethyl]-5-[1-methyl-4-(3-thienyl)-1H-pyrazol-5-yl]isoindolin-1-one]"
0.5 to 5 µM,> 5 µM,< 0.5 µM,0.5 to 5 µM,"CNC[C@H](Cc1cccc(F)c1)N1Cc2cc(-c3c(Cl)cnn3C)ccc2C1=O [Example 30, 5-(4-chloro-1-methyl-1H-pyrazol-5-yl)-2-[(1S)-1-(3-fluorobenzyl)-2-(methylamino)ethyl]isoindolin-1-one]"
0.5 to 5 µM,> 5 µM,< 0.5 µM,0.5 to 5 µM,"Cn1ncc(Cl)c1-c1ccc2c(c1)CN([C@H](CNC1CCC1)Cc1cccc(F)c1)C2=O [Example 34, 5-(4-chloro-1-methyl-1H-pyrazol-5-yl)-2-[(1S)-2-(cyclobutylamino)-1-(3-fluorobenzyl)ethyl]isoindolin-1-one]"
0.5 to 5 µM,> 5 µM,< 0.5 µM,0.5 to 5 µM,"Cn1ncc(-c2nccs2)c1-c1ccc2c(c1)CN([C@H](CN)Cc1cccc(F)c1)C2=O [Example 20, 2-[(1S)-2-amino-1-(3-fluorobenzyl)ethyl]-5-[1-methyl-4-(1,3-thiazol-2-yl)-1H-pyrazol-5-yl]isoindolin-1-one]"
0.5 to 5 µM,> 5 µM,0.5 to 5 µM,0.5 to 5 µM,"Cn1ncc(Cl)c1-c1ccc2c(c1)CN([C@H](CN)CC1CC1)C2=O [Example 137, 2-[(1S)-2-amino-1-(cyclopropylmethyl)ethyl]-5-(4-chloro-1-methyl-1H-pyrazol-5-yl)isoindolin-1-one]"
0.5 to 5 µM,> 5 µM,< 0.5 µM,0.5 to 5 µM,"Cn1ncc(Cl)c1-c1ccc2c(c1)CN(C(CN)c1ccccc1)C2=O (stereo in doubt) [Example 114, 2-[(1R)-2-amino-1-phenylethyl]-5-(4-chloro-1-methyl-1H-pyrazol-5-yl)isoindolin-1-one]"
